Assay: xn = mol fraction of the nth substance listed

O=C(O)CCl + CCCC[N+](CCCC)(CCCC)CCCC.O=S(=O)([O-])O
100 kPa
Settings | electrical conductivity, 303.15 K [S/m] | electrical conductivity, 308.15 K [S/m] | electrical conductivity, 313.15 K [S/m] | electrical conductivity, 333.15 K [S/m] | viscosity, 313.15 K [mPa·s] | viscosity, 333.15 K [mPa·s]
x2 = 0.333 | 0.027 | 0.0376 | – | – | – | –
x2 = 0.5 | – | – | 0.01 | 0.0382 | 1123 | 294.2

CNC(C)=O + CCCC[n+]1ccn(C)c1.F[B-](F)(F)F
101 kPa
Settings | viscosity [mPa·s]
293.15 K, x2 = 0.0711 | 6.4
293.15 K, x2 = 0.1409 | 7.42
293.15 K, x2 = 0.4343 | 19.1
293.15 K, x2 = 0.7774 | 65.8
298.15 K, x2 = 0.0711 | 5.41
298.15 K, x2 = 0.2042 | 7.19
298.15 K, x2 = 0.4992 | 19.7
298.15 K, x2 = 0.7774 | 51.7
303.15 K, x2 = 0.1409 | 5.66
308.15 K, x2 = 0 | 3.53
308.15 K, x2 = 0.714 | 24.7
313.15 K, x2 = 0.4992 | 9.8
318.15 K, x2 = 0.0711 | 3.3
318.15 K, x2 = 0.1409 | 3.74

CN(C)CCO + CCCC[n+]1ccn(C)c1.F[P-](F)(F)(F)(F)F
101 kPa
Settings | electrical conductivity [S/m] | viscosity [mPa·s]
288.15 K, x1 = 0.3182 | 0.1534 | 120
288.15 K, x1 = 0.3764 | 0.1645 | –
288.15 K, x1 = 0.5166 | 0.1918 | 63
288.15 K, x1 = 0.709 | 0.211 | 29
288.15 K, x1 = 0.8063 | 0.1998 | 18
293.15 K, x1 = 0.2143 | 0.187 | 117
293.15 K, x1 = 0.4405 | – | 61
293.15 K, x1 = 0.4637 | 0.237 | –
293.15 K, x1 = 0.5166 | 0.25 | 48
293.15 K, x1 = 0.8063 | 0.245 | 14.6
298.15 K, x1 = 0.1221 | 0.211 | 117
298.15 K, x1 = 0.4637 | 0.308 | –
298.15 K, x1 = 0.9128 | 0.1874 | 6.7
298.15 K, x1 = 1 | – | 3.8
303.15 K, x1 = 0.3764 | 0.369 | –
303.15 K, x1 = 0.4405 | – | 36
303.15 K, x1 = 0.8063 | 0.355 | 9.7
308.15 K, x1 = 0.4405 | – | 28
308.15 K, x1 = 0.4637 | 0.483 | –
313.15 K, x1 = 0.605 | 0.611 | 14
318.15 K, x1 = 0.3764 | 0.679 | –
323.15 K, x1 = 0.3764 | 0.792 | –
323.15 K, x1 = 0.5166 | 0.849 | 12.7
323.15 K, x1 = 1 | – | 2.04
